Experimental data: PubChem BioAssay (NCI)
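Briefly, cells in 96-well plates were exposed to five compound concentrations for 48 h, and endpoints were estimated by linear interpolation. GI50: concentration for 50% inhibition of growth. TGI marks complete inhibition of growth.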

Columns and labels:
Experiment in all cases: NCI tumour cell line growth inhibition, 48 h
[1] = test system: UACC-62 melanoma
[2] = test system: SF-539 CNS
[3] = test system: UACC-257 melanoma
[4] = test system: 786-0 renal
[5] = test system: TK-10 renal
[6] = test system: MDA-MB-231 breast
[7] = test system: NCI-H522 lung
[8] = test system: MOLT-4 leukemia
[9] = test system: IGROV1 ovarian
[10] = test system: MDA-MB-468 breast
[11] = test system: HOP-92 NSCLC
[12] = test system: HCT-116 colon
[13] = test system: SNB-75 CNS
[14] = test system: OVCAR-3 ovarian
[15] = test system: A498 renal
[16] = test system: HCT-15 colon
[17] = test system: HT29 colon
[18] = test system: MALME-3M melanoma
[19] = test system: SW-620 colon
[20] = test system: HOP-62 NSCLC
[21] = test system: RXF 393 renal
[22] = test system: SR leukemia
[23] = test system: HS 578T breast
[24] = test system: A549 NSCLC
[25] = test system: SK-OV-3 ovarian
[26] = test system: OVCAR-5 ovarian
[27] = test system: CCRF-CEM leukemia
[28] = test system: EKVX NSCLC
[29] = test system: T-47D breast
[30] = test system: UO-31 renal
[31] = test system: LOX IMVI melanoma
[32] = test system: SNB-19 CNS
[33] = test system: K-562 leukemia
[34] = test system: MDA-MB-435
[35] = test system: SN12C renal
[36] = test system: PC-3 prostate
[37] = test system: BT-549 breast
[38] = test system: NCI-H460 lung
[39] = test system: MCF7 breast
[40] = test system: OVCAR-4 ovarian
[41] = test system: KM12 colon
[42] = test system: COLO 205 colon
[43] = test system: RPMI-8226 leukemia
[44] = test system: SK-MEL-5 melanoma
[45] = test system: NCI-H226 lung
[46] = test system: HCC-2998 colon
[47] = test system: SF-268 CNS
[48] = test system: SF-295 CNS
[49] = test system: CAKI-1 renal
[50] = test system: ACHN renal
[51] = test system: M14 melanoma
[52] = test system: U251 CNS
[53] = test system: DU-145 prostate
[54] = test system: NCI-H23 lung
[55] = test system: SK-MEL-2 melanoma
[56] = test system: SK-MEL-28 melanoma
[57] = test system: OVCAR-8 ovarian
[58] = test system: HL-60(TB) leukemia

## Cc1nc(Nc2nc(C)c3ccc(OCCN4CCOCC4)cc3n2)[nH]c(=O)c1C
[1]
  GI50: 2.56 µM
  TGI: 8.19 µM
[2]
  GI50: 2.82 µM
  TGI: 8.86 µM
[3]
  GI50: 4.03 µM
  TGI: 25.9 µM
[4]
  GI50: 3.75 µM
  TGI: 18.2 µM
[5]
  GI50: 2.99 µM
  TGI: 22.4 µM
[6]
  GI50: 2.45 µM
  TGI: 6.05 µM
[7]
  GI50: 2.45 µM
  TGI: 8.57 µM
[8]
  GI50: 3.05 µM
  TGI: 22 µM
[9]
  GI50: 3.1 µM
  TGI: 12.6 µM
[10]
  GI50: 1.72 µM
  TGI: 3.8 µM
[11]
  GI50: 2.91 µM
  TGI: 9.9 µM
[12]
  GI50: 3.09 µM
  TGI: 12.3 µM
[13]
  GI50: 1.92 µM
  TGI: 8.83 µM
[14]
  GI50: 3.12 µM
  TGI: 13.7 µM
[15]
  GI50: 2.16 µM
  TGI: 6.52 µM
[16]
  GI50: 3.15 µM
  TGI: 18.8 µM
[17]
  GI50: 3.01 µM
  TGI: 9.94 µM
[18]
  GI50: 2.38 µM
  TGI: 9.06 µM
[19]
  GI50: 3.39 µM
  TGI: 20.7 µM
[20]
  GI50: 4.59 µM
  TGI: 20.4 µM
[21]
  GI50: 1.95 µM
  TGI: 4.47 µM
[22]
  GI50: 3.03 µM
  TGI: 10.7 µM
[23]
  GI50: 3.79 µM
  TGI: 23.6 µM
[24]
  GI50: 3.37 µM
  TGI: 15.4 µM
[25]
  GI50: 4.67 µM
  TGI: 24.8 µM
[26]
  GI50: 4.22 µM
  TGI: 27.5 µM
[27]
  GI50: 3.26 µM
  TGI: 13.8 µM
[28]
  GI50: 4.15 µM
  TGI: 26.7 µM
[29]
  GI50: 4.36 µM
  TGI: 43.5 µM
[30]
  GI50: 2.95 µM
  TGI: 15.2 µM
[31]
  GI50: 2.39 µM
  TGI: 6.72 µM
[32]
  GI50: 4.66 µM
  TGI: 24.6 µM
[33]
  GI50: 3.31 µM
  TGI: 27.4 µM
[34]
  GI50: 4.28 µM
  TGI: 15.8 µM
[35]
  GI50: 3.46 µM
  TGI: 19.5 µM
[36]
  GI50: 4.04 µM
  TGI: 27 µM
[37]
  GI50: 3.55 µM
  TGI: 12.1 µM
[38]
  GI50: 2.94 µM
  TGI: 9.12 µM
[39]
  GI50: 4.15 µM
  TGI: > 100 µM
[40]
  GI50: 2.54 µM
  TGI: 7.74 µM
[41]
  GI50: 3.14 µM
  TGI: 10.8 µM
[42]
  GI50: 2.25 µM
  TGI: 5.58 µM
[43]
  GI50: 2.79 µM
  TGI: 8.33 µM
[44]
  GI50: 2.29 µM
  TGI: 6.87 µM
[45]
  GI50: 2.86 µM
  TGI: 11.1 µM
[46]
  GI50: 3.1 µM
  TGI: 5.43 µM
[47]
  GI50: 3.58 µM
  TGI: 19 µM
[48]
  GI50: 4.43 µM
  TGI: 57.9 µM
[49]
  GI50: 3.66 µM
  TGI: 24.2 µM
[50]
  GI50: 3.85 µM
  TGI: 19.4 µM
[51]
  GI50: 4.36 µM
  TGI: 17.4 µM
[52]
  GI50: 4.16 µM
  TGI: 51.4 µM
[53]
  GI50: 2.94 µM
  TGI: 9.03 µM
[54]
  GI50: 2.53 µM
  TGI: 5.91 µM
[55]
  GI50: 2.03 µM
  TGI: 5.13 µM
[56]
  GI50: 3.64 µM
  TGI: 14.3 µM
[57]
  GI50: 4.04 µM
  TGI: 17.9 µM
[58]
  GI50: 2.27 µM
  TGI: 6.83 µM
